In ChEMBL document CHEMBL1143015, “Hyrtinadine A, a bis-indole alkaloid from a marine sponge” (J Nat Prod, 2007) one finds IC50 data, which are given here for 1 molecule.

In one experiment the test system is KB. Put plainly: Cytotoxicity against human KB cells. It counts as cell-based.
The test system of a further experiment is L1210. In words: Cytotoxicity against mouse L1210 cells. It is filed as cell-based.

Values after ≈ are worked out from the molar mass of the structure shown.

`Oc1ccc2[nH]cc(-c3cnc(-c4c[nH]c5ccc(O)cc45)nc3)c2c1` [HYRTINADINE A]: the IC50 stood at 3 µg/mL (≈ 8.76 µM) in the experiment on KB and 1 µg/mL (≈ 2.92 µM) with L1210.
